Reference: US8461186B2, “Use of N-piperidine derivatives for the treatment of neurodegenerative pathologies” (Medestea Research & Production S.p.A., priority 2004, dated 2013)

System: mean arterial blood pressure (MAP) and heart rate (HR) in the rat
Assay: Mean arterial blood pressure (MAP) and heart rate (HR) in myocardial ischaemia and reperfusion
Assay type: in vivo
Settings: for HR: in beats/min (unit assumed); for MAP: in mmHg (unit assumed); for mean MAP and HR values versus the I/R group treated with the vehicle alone: rats subjected to I/R; for haemodynamic effects of infusion: sham operations (no LAD occlusion)
Experimental: The rats (twenty per group) were anaesthetized by intraperitoneal injection of chloral hydrate (380 mg/kg) and were then tracheotomized, intubated and ventilated with ambient air by a suitable ventilator; body temperature was kept at 38° C.±1 and the right carotid artery was cannulated and connected to a pressure transducer to monitor the mean arterial blood pressure (MAP).
The coronary artery was occluded by tightening the occluder, a procedure which is correlated with the electrocardiographic and haemodynamic changes (drop in MAP) which are typical of myocardial ischaemia. After 25 minutes of myocardial ischaemia, the occluder was reopened, permitting reperfusion for 2 hours. The heart rate (HR) and MAP were monitored continuously.
The following test groups were considered: a) LAD occlusion (25 minutes) and reperfusion (2 hours) plus administration of the vehicle (saline solution, 3 ml/kg-v-bolus plus 1.8 ml/kg/h) starting 5 minutes after reperfusion and maintained during the reperfusion period; b) LAD occlusion and reperfusion plus administration of MP1002 or MP1001 (10 mg/kg injection in bolus) 5 minutes prior to reperfusion, followed by infusion of 2 mg/kg/h during the reperfusion period; c) sham operation (no LAD occlusion) and infusion of the vehicle; d) sham operation and infusion of MP1002 or MP1001 as described above.
The base haemodynamic results were similar in the various groups considered.

[1] = Sham operation, Occlusion 15 min
[2] = Sham operation, Occlusion 25 min
[3] = Sham operation, Reperfusion 15 min
[4] = Sham operation, Reperfusion 25 min

Q: `CC1(C)CC(OC(=O)CCCCCCCCC(=O)OC2CC(C)(C)N(O)C(C)(C)C2)CC(C)(C)N1O` [MP1001, BIS(1-HYDROXYL-2,2,6,6-TETRAMETHYL-4-PIPERIDINYL)DECANDIOATE] was tested. Which HR (I/R, Baseline) did it give?
A: The HR was 435 ± 25.

Q: What about the MAP (I/R, Baseline) of the same compound?
A: The MAP was 125 ± 9.

Q: What about the HR (I/R, Occlusion 15 min) of the same compound?
A: The HR was 438 ± 31.

Q: What about the MAP (I/R, Occlusion 15 min) of the same compound?
A: Its MAP is 118 ± 12.

Q: What about the HR (I/R, Occlusion 25 min) of the same compound?
A: The HR was 430 ± 28.

Q: What about the MAP (I/R, Occlusion 25 min) of the same compound?
A: The MAP was 111 ± 13.

Q: And the HR (I/R, Reperfusion 15 min)?
A: Its HR is 425 ± 28.

Q: And the MAP (I/R, Reperfusion 15 min)?
A: The MAP was 100 ± 10.

Q: And the HR (I/R, Reperfusion 25 min)?
A: Its HR is 427 ± 26.

Q: What about the MAP (I/R, Reperfusion 25 min) of the same compound?
A: Its MAP is 95 ± 8.

Q: What about the HR (Sham operation, Baseline) of the same compound?
A: The HR was 422 ± 33.

Q: What about the MAP (Sham operation, Baseline) of the same compound?
A: Its MAP is 127 ± 16.

Q: And the HR [1]?
A: Its HR is 422 ± 26.

Q: What about the MAP [1] of the same compound?
A: Its MAP is 125 ± 13.

Q: And the HR [2]?
A: Its HR is 424 ± 48.

Q: What about the MAP [2] of the same compound?
A: Its MAP is 121 ± 11.

Q: And the HR [3]?
A: Its HR is 427 ± 27.

Q: And the MAP [3]?
A: Its MAP is 112 ± 8.

Q: What about the HR [4] of the same compound?
A: Its HR is 427 ± 23.

Q: What about the MAP [4] of the same compound?
A: The MAP was 107 ± 16.

Q: And the “mean MAP and HR values versus the I/R group treated with the vehicle alone” value?
A: The value was “not significantly different”.

Q: And the “haemodynamic effects of infusion” value?
A: Its value is “no substantial haemodynamic effects”.

Q: With `CC1(C)CC(OC(=O)CCCCCCCCC(=O)OC2CC(C)(C)N(O)C(C)(C)C2)CC(C)(C)N1O` [MP1002, bis(1-oxyl-2,2,6,6-tetramethyl-4-piperidinyl)decandioate] as the compound, how does the HR (I/R, Baseline) read?
A: Its HR is 438 ± 30.

Q: And the MAP (I/R, Baseline)?
A: Its MAP is 127 ± 14.

Q: And the HR (I/R, Occlusion 15 min)?
A: The HR was 437 ± 32.

Q: And the MAP (I/R, Occlusion 15 min)?
A: The MAP was 121 ± 14.

Q: What about the HR (I/R, Occlusion 25 min) of the same compound?
A: Its HR is 431 ± 24.

Q: And the MAP (I/R, Occlusion 25 min)?
A: Its MAP is 114 ± 10.

Q: And the HR (I/R, Reperfusion 15 min)?
A: Its HR is 427 ± 29.

Q: And the MAP (I/R, Reperfusion 15 min)?
A: Its MAP is 102 ± 11.

Q: What about the HR (I/R, Reperfusion 25 min) of the same compound?
A: Its HR is 429 ± 25.

Q: And the MAP (I/R, Reperfusion 25 min)?
A: Its MAP is 97 ± 9.

Q: And the HR (Sham operation, Baseline)?
A: Its HR is 421 ± 26.

Q: And the MAP (Sham operation, Baseline)?
A: Its MAP is 125 ± 15.

Q: What about the HR [1] of the same compound?
A: Its HR is 420 ± 33.

Q: And the MAP [1]?
A: The MAP was 123 ± 16.

Q: What about the HR [2] of the same compound?
A: The HR was 422 ± 25.

Q: And the MAP [2]?
A: The MAP was 120 ± 11.

Q: What about the HR [3] of the same compound?
A: Its HR is 428 ± 26.

Q: And the MAP [3]?
A: The MAP was 110 ± 12.

Q: What about the HR [4] of the same compound?
A: The HR was 426 ± 32.

Q: And the MAP [4]?
A: The MAP was 105 ± 9.

Q: What about the “mean MAP and HR values versus the I/R group treated with the vehicle alone” value of the same compound?
A: The value was “not significantly different”.

Q: What about the “haemodynamic effects of infusion” value of the same compound?
A: The value was “no substantial haemodynamic effects”.
